Laboratory results reported in patent EP4745135A1 (Gluetacs Therapeutics (Shanghai) Co., Ltd., priority 2023, dated 2025).

What was measured:
GSPT1 = assay: Western blot, degradation of substrate protein in hPBMCs; format: cell-based, Human; details: 24 hours treatment, compounds at 50 nM and 500 nM (concentration behind the class not stated)
IKZF1 = target: T1, IKZF1 (Homo sapiens, UniProt Q13422+Q96SW2); assay: as above; format: cell-based; details: 24 hours treatment, compounds at 50 nM and 500 nM (concentration behind the class not stated)
T1 construct: effects of the compounds of the present disclosure on the expression of target proteins in cells; endogenous in cells; host or cells: human PBMCs (Milecell Biotechnologies)
T1 sequence (Q13422 whole entry): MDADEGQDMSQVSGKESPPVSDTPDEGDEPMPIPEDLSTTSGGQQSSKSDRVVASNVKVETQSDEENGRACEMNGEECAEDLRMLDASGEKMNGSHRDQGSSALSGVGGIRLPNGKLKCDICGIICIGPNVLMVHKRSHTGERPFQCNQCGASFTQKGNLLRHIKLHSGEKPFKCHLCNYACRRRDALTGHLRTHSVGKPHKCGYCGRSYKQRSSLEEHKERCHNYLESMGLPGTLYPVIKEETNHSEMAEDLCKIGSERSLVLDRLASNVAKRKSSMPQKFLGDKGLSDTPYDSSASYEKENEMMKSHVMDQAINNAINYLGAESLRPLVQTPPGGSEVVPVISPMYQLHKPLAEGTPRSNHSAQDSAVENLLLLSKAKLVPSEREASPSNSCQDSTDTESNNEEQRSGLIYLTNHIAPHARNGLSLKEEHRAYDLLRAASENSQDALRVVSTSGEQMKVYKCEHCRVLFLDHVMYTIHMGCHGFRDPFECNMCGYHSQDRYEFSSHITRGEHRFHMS
T1 sequence (Q96SW2 whole entry): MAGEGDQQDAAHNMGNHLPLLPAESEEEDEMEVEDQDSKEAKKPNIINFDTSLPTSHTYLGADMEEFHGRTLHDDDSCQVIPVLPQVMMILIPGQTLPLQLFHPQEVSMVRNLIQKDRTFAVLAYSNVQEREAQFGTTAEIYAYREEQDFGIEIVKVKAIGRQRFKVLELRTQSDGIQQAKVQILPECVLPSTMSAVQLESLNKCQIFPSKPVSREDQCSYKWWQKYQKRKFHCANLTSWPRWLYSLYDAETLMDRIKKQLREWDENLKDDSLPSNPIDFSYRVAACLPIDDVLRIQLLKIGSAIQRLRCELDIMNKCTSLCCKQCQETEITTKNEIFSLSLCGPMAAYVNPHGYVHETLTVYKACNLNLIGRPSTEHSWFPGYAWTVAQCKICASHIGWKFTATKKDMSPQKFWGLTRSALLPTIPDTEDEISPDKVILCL
T1 sequence (Q16531 whole entry partner): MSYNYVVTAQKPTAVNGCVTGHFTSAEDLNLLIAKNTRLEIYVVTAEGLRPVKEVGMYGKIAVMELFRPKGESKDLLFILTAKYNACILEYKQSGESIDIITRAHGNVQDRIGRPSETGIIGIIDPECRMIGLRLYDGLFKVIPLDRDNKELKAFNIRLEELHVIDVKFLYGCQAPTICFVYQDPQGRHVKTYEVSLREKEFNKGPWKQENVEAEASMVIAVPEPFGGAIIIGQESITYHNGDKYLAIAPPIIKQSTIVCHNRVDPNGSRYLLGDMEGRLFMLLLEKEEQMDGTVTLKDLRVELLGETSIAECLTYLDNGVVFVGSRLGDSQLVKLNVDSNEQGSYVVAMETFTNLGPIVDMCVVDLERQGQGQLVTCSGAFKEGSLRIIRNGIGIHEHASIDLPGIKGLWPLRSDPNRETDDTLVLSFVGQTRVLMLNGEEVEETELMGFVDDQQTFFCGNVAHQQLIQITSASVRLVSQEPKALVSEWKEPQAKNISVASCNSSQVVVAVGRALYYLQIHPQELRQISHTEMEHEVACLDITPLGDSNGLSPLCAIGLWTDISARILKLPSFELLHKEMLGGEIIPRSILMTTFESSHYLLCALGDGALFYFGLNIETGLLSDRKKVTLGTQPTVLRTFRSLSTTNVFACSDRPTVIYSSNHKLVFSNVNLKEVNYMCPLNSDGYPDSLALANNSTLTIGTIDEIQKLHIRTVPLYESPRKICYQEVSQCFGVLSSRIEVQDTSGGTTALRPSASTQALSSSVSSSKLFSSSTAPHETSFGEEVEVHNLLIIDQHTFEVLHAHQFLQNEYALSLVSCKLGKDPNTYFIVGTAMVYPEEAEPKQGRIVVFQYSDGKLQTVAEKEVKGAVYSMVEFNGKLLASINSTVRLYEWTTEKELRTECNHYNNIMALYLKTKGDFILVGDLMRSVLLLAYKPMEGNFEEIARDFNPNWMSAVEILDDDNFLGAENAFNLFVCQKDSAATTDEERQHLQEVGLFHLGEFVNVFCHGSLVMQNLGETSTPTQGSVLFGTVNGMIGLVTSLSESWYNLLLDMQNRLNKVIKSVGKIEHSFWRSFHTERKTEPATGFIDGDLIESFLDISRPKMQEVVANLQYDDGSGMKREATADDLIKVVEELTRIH

IKZF2 = target: T2, IKZF2 (Homo sapiens, UniProt Q96SW2+Q9UKS7); assay: as above; format: cell-based; details: 24 hours treatment, compounds at 50 nM and 500 nM (concentration behind the class not stated)
T2 construct: effects of the compounds of the present disclosure on the expression of target proteins in cells; endogenous in cells; host or cells: human PBMCs (Milecell Biotechnologies)
T2 sequence (Q9UKS7 whole entry): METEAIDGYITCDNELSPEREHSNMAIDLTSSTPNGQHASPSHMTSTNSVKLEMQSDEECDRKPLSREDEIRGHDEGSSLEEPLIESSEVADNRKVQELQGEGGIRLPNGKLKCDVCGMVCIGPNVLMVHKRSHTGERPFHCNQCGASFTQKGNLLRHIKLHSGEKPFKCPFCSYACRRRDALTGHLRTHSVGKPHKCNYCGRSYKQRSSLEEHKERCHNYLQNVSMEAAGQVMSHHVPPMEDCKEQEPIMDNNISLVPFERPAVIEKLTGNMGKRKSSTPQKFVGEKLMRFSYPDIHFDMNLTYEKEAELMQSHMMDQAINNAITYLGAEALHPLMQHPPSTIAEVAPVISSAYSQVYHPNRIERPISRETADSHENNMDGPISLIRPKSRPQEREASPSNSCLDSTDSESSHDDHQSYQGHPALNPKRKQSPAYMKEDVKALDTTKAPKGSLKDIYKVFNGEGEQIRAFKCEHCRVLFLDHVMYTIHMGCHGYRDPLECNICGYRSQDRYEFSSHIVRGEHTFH
T2 sequence (Q96SW2 whole entry): as the sequence (Q96SW2 whole entry) above
T2 sequence (Q16531 whole entry partner): as the sequence (Q16531 whole entry partner) above

CK1α = target: T3, CK1α (Homo sapiens, UniProt P48729+Q96SW2); assay: as above; format: cell-based; details: 24 hours treatment, compounds at 50 nM and 500 nM (concentration behind the class not stated)
T3 construct: effects of the compounds of the present disclosure on the expression of target proteins in cells; endogenous in cells; host or cells: human PBMCs (Milecell Biotechnologies)
T3 sequence (P48729 whole entry): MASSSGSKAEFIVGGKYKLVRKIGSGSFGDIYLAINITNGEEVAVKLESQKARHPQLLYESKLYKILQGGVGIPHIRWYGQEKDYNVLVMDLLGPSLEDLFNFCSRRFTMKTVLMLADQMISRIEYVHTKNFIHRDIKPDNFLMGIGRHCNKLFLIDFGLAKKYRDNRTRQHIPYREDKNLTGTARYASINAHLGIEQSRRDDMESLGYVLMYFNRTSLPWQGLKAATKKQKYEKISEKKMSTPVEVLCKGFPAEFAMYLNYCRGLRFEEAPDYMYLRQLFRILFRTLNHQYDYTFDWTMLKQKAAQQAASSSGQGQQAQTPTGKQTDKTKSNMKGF
T3 sequence (Q96SW2 whole entry): as the sequence (Q96SW2 whole entry) above
T3 sequence (Q16531 whole entry partner): as the sequence (Q16531 whole entry partner) above

WEE1 = target: T4, WEE1 (Homo sapiens, UniProt P30291+Q96SW2); assay: as above; format: cell-based; details: 24 hours treatment, compounds at 50 nM and 500 nM (concentration behind the class not stated)
T4 construct: effects of the compounds of the present disclosure on the expression of target proteins in cells; endogenous in cells; host or cells: human PBMCs (Milecell Biotechnologies)
T4 sequence (P30291 whole entry): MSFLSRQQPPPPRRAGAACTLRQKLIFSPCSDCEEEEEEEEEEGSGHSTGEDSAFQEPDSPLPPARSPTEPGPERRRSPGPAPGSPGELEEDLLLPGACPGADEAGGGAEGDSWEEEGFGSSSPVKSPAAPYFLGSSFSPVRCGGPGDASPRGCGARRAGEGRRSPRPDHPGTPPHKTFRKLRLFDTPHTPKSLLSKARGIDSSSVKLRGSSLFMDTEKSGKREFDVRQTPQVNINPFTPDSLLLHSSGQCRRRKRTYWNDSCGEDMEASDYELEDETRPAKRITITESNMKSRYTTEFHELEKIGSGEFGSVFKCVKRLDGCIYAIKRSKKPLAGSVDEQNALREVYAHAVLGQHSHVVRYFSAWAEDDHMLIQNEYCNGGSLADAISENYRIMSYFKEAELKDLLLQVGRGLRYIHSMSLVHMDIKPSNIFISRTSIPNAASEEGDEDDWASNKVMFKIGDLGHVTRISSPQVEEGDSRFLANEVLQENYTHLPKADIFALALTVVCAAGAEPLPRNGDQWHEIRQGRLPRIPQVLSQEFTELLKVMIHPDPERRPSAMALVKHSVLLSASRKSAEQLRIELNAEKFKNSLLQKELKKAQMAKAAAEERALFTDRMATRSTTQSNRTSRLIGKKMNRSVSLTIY
T4 sequence (Q96SW2 whole entry): as the sequence (Q96SW2 whole entry) above
T4 sequence (Q16531 whole entry partner): as the sequence (Q16531 whole entry partner) above

IKZF3 = target: T5, IKZF3 (Homo sapiens, UniProt Q96SW2+Q9UKT9); assay: as above; format: cell-based; details: 24 hours treatment, compounds at 50 nM and 500 nM (concentration behind the class not stated)
T5 construct: effects of the compounds of the present disclosure on the expression of target proteins in cells; endogenous in cells; host or cells: human PBMCs (Milecell Biotechnologies)
T5 sequence (Q9UKT9 whole entry): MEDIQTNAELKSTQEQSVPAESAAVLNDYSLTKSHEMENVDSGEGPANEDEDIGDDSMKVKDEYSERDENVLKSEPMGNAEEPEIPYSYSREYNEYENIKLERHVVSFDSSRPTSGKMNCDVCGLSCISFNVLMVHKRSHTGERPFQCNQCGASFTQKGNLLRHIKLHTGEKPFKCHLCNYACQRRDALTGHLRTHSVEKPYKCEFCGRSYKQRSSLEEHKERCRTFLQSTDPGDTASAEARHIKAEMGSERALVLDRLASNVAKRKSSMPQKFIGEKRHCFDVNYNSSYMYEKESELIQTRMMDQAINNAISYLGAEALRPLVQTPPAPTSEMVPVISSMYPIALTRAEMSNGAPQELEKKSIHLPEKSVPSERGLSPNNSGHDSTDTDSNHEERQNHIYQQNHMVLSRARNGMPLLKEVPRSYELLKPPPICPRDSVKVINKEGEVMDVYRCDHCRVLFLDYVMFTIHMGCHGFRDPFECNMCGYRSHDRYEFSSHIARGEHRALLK
T5 sequence (Q96SW2 whole entry): as the sequence (Q96SW2 whole entry) above
T5 sequence (Q16531 whole entry partner): as the sequence (Q16531 whole entry partner) above

[1] = target: T6, human Cereblon WT GST-tagged protein (Homo sapiens, UniProt Q96SW2); assay: CRBN-binding affinity, HTRF (CEREBLON BINDING kit); details: for inhibition at 0.5 µM: read-out: Inhibition Rate at 0.5 µM (%); for inhibition at 2 µM: read-out: Inhibition Rate at 2 µM (%)
T6 construct: purchased CISBIO 64BDCRBNPEH
T6 sequence (Q96SW2 whole entry): as the sequence (Q96SW2 whole entry) above

Row | inhibition at 0.5 µM [1] | inhibition at 2 µM [1] | Structure (SMILES) | GSPT1 substrate protein remaining % (GSPT1) | IKZF 1 substrate protein remaining % (IKZF1) | IKZF2 substrate protein remaining % (IKZF2) | CK1α substrate protein remaining % (CK1α) | Wee1 substrate protein remaining % (WEE1) | IKZF3 substrate protein remaining % (IKZF3)
1 | 60 to 80% | 80 to 100% | Cc1cc2c(N3CCN(Cc4cccc5c4CN(C4CCC(=O)NC4=O)C5=S)CC3)ncnc2s1 (stereo not shown) [GT-08914, 3-(4-((4-(6-methylthieno[2,3-d]pyrimidin-4-yl)piperazin-1-yl)methyl)-1-thioxoisoindolin-2-yl)piperidine-2,6-dione] | B (80%< substrate protein remaining %≤ 100%) | B (80%< substrate protein remaining %≤ 100%) | B (80%< substrate protein remaining %≤ 100%) | B (80%< substrate protein remaining %≤ 100%) | A (0% ≤ substrate protein remaining % ≤ 80%) | B (80%< substrate protein remaining %≤ 100%)
2 | 40 to 53% | 80 to 100% | Cc1sc2ncnc(N3CCN(Cc4cccc5c4CN(C4CCC(=O)NC4=O)C5=S)CC3)c2c1C (stereo not shown) [GT-08916, 3-(4-((4-(5,6-dimethylthieno[2,3-d]pyrimidin-4-yl)piperazin-1-yl)methyl)-1-thioxoisoindolin-2-yl)piperidine-2,6-dione] | A (0% ≤ substrate protein remaining % ≤ 80%) | B (80%< substrate protein remaining %≤ 100%) | B (80%< substrate protein remaining %≤ 100%) | B (80%< substrate protein remaining %≤ 100%) | A (0% ≤ substrate protein remaining % ≤ 80%) | B (80%< substrate protein remaining %≤ 100%)
3 | 53 to 60% | 80 to 100% | Cc1sc2ncnc(N3CCCN(Cc4cccc5c4CN(C4CCC(=O)NC4=O)C5=S)CC3)c2c1C (stereo not shown) [GT-08917, 3-(4-((4-(5,6-dimethylthieno[2,3-d]pyrimidin-4-yl)-1,4-diazepan-1-yl)methyl)-1-thioxoisoindolin-2-yl)piperidine-2,6-dione] | A (0% ≤ substrate protein remaining % ≤ 80%) | B (80%< substrate protein remaining %≤ 100%) | B (80%< substrate protein remaining %≤ 100%) | B (80%< substrate protein remaining %≤ 100%) | A (0% ≤ substrate protein remaining % ≤ 80%) | B (80%< substrate protein remaining %≤ 100%)
4 | 60 to 80% | 80 to 100% | O=C1CCC(N2Cc3c(CN4CCN(c5ncnc6sc(Br)cc56)CC4)cccc3C2=S)C(=O)N1 (stereo not shown) [GT-08918, 3-(4-((4-(6-bromothieno[2,3-d]pyrimidin-4-yl)piperazin-1-yl)methyl)-1-thioxoisoindolin-2-yl)piperidine-2,6-dione] | B (80%< substrate protein remaining %≤ 100%) | B (80%< substrate protein remaining %≤ 100%) | B (80%< substrate protein remaining %≤ 100%) | B (80%< substrate protein remaining %≤ 100%) | A (0% ≤ substrate protein remaining % ≤ 80%) | B (80%< substrate protein remaining %≤ 100%)
5 | 20 to 30% | 60 to 80% | O=C1CCC(N2Cc3c(CN4CCN(c5ncnc6sc(-c7ccccc7)cc56)CC4)cccc3C2=S)C(=O)N1 (stereo not shown) [GT-08919, 3-(4-((4-(6-phenylthieno[2,3-d]pyrimidin-4-yl)piperazin-1-yl)methyl)-1-thioxoisoindolin-2-yl)piperidine-2,6-dione] | B (80%< substrate protein remaining %≤ 100%) | B (80%< substrate protein remaining %≤ 100%) | B (80%< substrate protein remaining %≤ 100%) | B (80%< substrate protein remaining %≤ 100%) | A (0% ≤ substrate protein remaining % ≤ 80%) | B (80%< substrate protein remaining %≤ 100%)
6 | 60 to 80% | 80 to 100% | Cc1nc(N2CCN(Cc3cccc4c3CN(C3CCC(=O)NC3=O)C4=S)CC2)c2ccsc2n1 (stereo not shown) [GT-08922, 3-(4-((4-(2-methylthieno[2,3-d]pyrimidin-4-yl)piperazin-1-yl)methyl)-1-thioxoisoindolin-2-yl)piperidine-2,6-dione] | B (80%< substrate protein remaining %≤ 100%) | B (80%< substrate protein remaining %≤ 100%) | B (80%< substrate protein remaining %≤ 100%) | B (80%< substrate protein remaining %≤ 100%) | A (0% ≤ substrate protein remaining % ≤ 80%) | B (80%< substrate protein remaining %≤ 100%)
7 | 40 to 53% | 80 to 100% | O=C1CCC(N2Cc3c(CN4CCN(c5ncnc6sc7c(c56)CCCC7)CC4)cccc3C2=S)C(=O)N1 (stereo not shown) [GT-08924, 3-(4-((4-(5,6,7,8-tetrahydrobenzo[4,5]thieno[2,3-d]pyrimidin-4-yl)piperazin-1-yl)methyl)-1-thioxoisoindolin-2-yl)piperidine-2,6-dione] | B (80%< substrate protein remaining %≤ 100%) | B (80%< substrate protein remaining %≤ 100%) | A (0% ≤ substrate protein remaining % ≤ 80%) | B (80%< substrate protein remaining %≤ 100%) | A (0% ≤ substrate protein remaining % ≤ 80%) | B (80%< substrate protein remaining %≤ 100%)
8 | 53 to 60% | 80 to 100% | Cc1nc(N2CCN(Cc3cccc4c3CN(C3CCC(=O)NC3=O)C4=S)CC2)c2c3c(sc2n1)CCC3 (stereo not shown) [GT-08926, 3-(4-((4-(2-methyl-6,7-dihydro-5H-cyclopenta[4,5]thieno[2,3-d]pyrimidin-4-yl)piperazin-1-yl)methyl)-1-thioxoisoindolin-2-yl)piperidine-2,6-dione] | B (80%< substrate protein remaining %≤ 100%) | B (80%< substrate protein remaining %≤ 100%) | B (80%< substrate protein remaining %≤ 100%) | B (80%< substrate protein remaining %≤ 100%) | A (0% ≤ substrate protein remaining % ≤ 80%) | B (80%< substrate protein remaining %≤ 100%)
9 | 60 to 80% | 80 to 100% | O=C1CCC(N2Cc3c(CN4CCN(c5ncc6ccsc6n5)CC4)cccc3C2=S)C(=O)N1 (stereo not shown) [GT-08927, 3-(4-((4-(thieno[2,3-d]pyrimidin-2-yl)piperazin-1-yl)methyl)-1-thioxoisoindolin-2-yl)piperidine-2,6-dione] | B (80%< substrate protein remaining %≤ 100%) | B (80%< substrate protein remaining %≤ 100%) | A (0% ≤ substrate protein remaining % ≤ 80%) | B (80%< substrate protein remaining %≤ 100%) | A (0% ≤ substrate protein remaining % ≤ 80%) | A (0% ≤ substrate protein remaining % ≤ 80%)
10 | 30 to 40% | 60 to 80% | O=C1CCC(N2Cc3c(CN4CCC(c5ncnc6sc(-c7ccccc7)cc56)CC4)cccc3C2=S)C(=O)N1 (stereo not shown) [GT-08929, 3-(4-((4-(6-phenylthieno[2,3-d]pyrimidin-4-yl)piperidin-1-yl)methyl)-1-thioxoisoindolin-2-yl)piperidine-2,6-dione] | B (80%< substrate protein remaining %≤ 100%) | B (80%< substrate protein remaining %≤ 100%) | B (80%< substrate protein remaining %≤ 100%) | B (80%< substrate protein remaining %≤ 100%) | A (0% ≤ substrate protein remaining % ≤ 80%) | B (80%< substrate protein remaining %≤ 100%)
11 | 53 to 60% | 80 to 100% | O=C1CCC(N2Cc3c(CN4CCC(c5ncnc6scc(-c7ccccc7)c56)CC4)cccc3C2=S)C(=O)N1 (stereo not shown) [GT-08930, 3-(4-((4-(5-phenylthieno[2,3-d]pyrimidin-4-yl)piperidin-1-yl)methyl)-1-thioxoisoindolin-2-yl)piperidine-2,6-dione] | B (80%< substrate protein remaining %≤ 100%) | B (80%< substrate protein remaining %≤ 100%) | B (80%< substrate protein remaining %≤ 100%) | B (80%< substrate protein remaining %≤ 100%) | A (0% ≤ substrate protein remaining % ≤ 80%) | B (80%< substrate protein remaining %≤ 100%)
